From patent US20080280920A1, “Plasminogen Activator Inhibitor-1 Inhibitors” (priority 2005, published 2008)

Target: T1, wildtype human PAI-1 (Homo sapiens, UniProt P05121)
T1 construct: purchased Molecular Innovations Lot# HWT-804
Assay: PAI-1/uPA assay (residual uPA activity, fluorescent substrate SpectroFluor)
Assay type: biochemical
Settings: for Conc. of compound required for PAI-1 inhibition (result in words): within the concentration range tested; for Percent PAI-1 inhibition: at the concentration given, percent of activity of untreated PAI-1; for Conc. of compound required for PAI-1 inhibition: concentration giving the percent inhibition, 6 nM PAI-1, 8 nM uPA
Experimental: Principle: The assay is based on using a fluorescent substrate (SpectroFluor) to measure residual uPA following inhibition of uPA by PAI-1. PAI-1 used in the assay is pre-treated in the presence of increasing concentrations of the lead compounds to screen for any inhibitory effects on PAI-1. Method: This assay was performed in 96 well microtiter plates. The concentrations of uPA (8 nM) and PAI-1 (6 nM) used in this assay were carefully optimized when using the fluorescent substrate, SpectroFluor™. Stock solutions (10 mM) of all lead compounds were prepared fresh in DMSO. […] 20 μl of 6 nM wildtype human PAI-1 (Molecular Innovations, Lot# HWT-804) was incubated for 15-20 minutes at room temperature in 96 well microtiter plates either with buffer, (50 mM HEPES, 150 mM NaCl, 0.05% Tween-20, 1% BSA, pH 6.6) or various concentrations (10 nM to 100 μM final concentration) of lead compounds in a total volume of 80 μl. A 20 μl aliquot of 8 nM uPA (HMW) solution in 0.05M Tris Buffered™ saline (TBS), pH 8.4 was added to each well and the mixture incubated for an additional 5 minutes at RT. The proteolytic reaction was initiated by addition of 50 μl of 0.1 mM SpectroFluor (Spectrozyme UK Fluorogenic substrate) to each well. The kinetics of the free chromophore, 7-amino-4-methylcoumarin (AMC) released in the course of peptide cleavage by the protease, uPA, was monitored for 30 minutes at 37° C. on a spectrofluorometric microplate reader with an excitation wavelength of 360 nm and emission wavelength of 440 nm. Kinetic data regarding the rate of substrate cleavage by uPA was acquired with Softmax PrO™ software. The difference between the residual uPA activity in the presence or absence of untreated PAI-1, at the molar ratio used, was considered as the “total” PAI-1 activity (100%). The inhibition of uPA by PAI-1 treated with lead compounds was expressed as a percentage of the initial activity of untreated PAI-1. Controls were performed during each experiment to ensure the nearly complete inhibition of uPA by untreated PAI-1 and also to ensure the absence of any direct effect of the lead compounds on uPA alone or on SpectroFluor.

T1 sequence (P05121 24-402): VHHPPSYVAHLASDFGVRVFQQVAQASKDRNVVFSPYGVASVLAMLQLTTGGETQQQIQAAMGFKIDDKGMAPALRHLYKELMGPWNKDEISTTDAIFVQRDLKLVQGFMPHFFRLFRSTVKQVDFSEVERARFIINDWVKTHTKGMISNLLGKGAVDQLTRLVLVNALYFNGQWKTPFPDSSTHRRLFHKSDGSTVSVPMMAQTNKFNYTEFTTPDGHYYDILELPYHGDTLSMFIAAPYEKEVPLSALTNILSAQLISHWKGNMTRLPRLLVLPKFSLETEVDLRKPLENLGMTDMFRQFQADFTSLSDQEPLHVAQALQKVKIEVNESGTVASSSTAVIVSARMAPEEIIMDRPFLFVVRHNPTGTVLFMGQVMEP

Structure (SMILES)	Conc. of compound required for PAI-1 inhibition (result in words)	Percent PAI-1 inhibition	Conc. of compound required for PAI-1 inhibition
COc1cc(/C=C2\NC(=O)N(Cc3ccc(O)cc3)C2=O)cc(CN2CCN(C)CC2)c1O [Compound Q013024]	No inhibition	–	–
COc1cc(CNCc2ccc(C(=O)O)cc2)cc(CN2CCN(c3ccccn3)CC2)c1O [Compound Q012136]	–	15	50 µM
CCOC(=O)[C@H](Cc1csc2ccccc12)NC(=O)[C@@H]1CCCN(C(=O)OC(C)(C)C)C1 [Compound Q012126, (2S)-3-(thianaphthen-3-yl)-2-({[(3R)—N-t-butyloxycarbonylpiperidin-3-yl]carbonyl}amino)propanoic acid ethyl ester]	–	19	50 µM
Cc1cc(=O)oc2cc(OCC(=O)N[C@@H](Cc3csc4ccccc34)C(=O)O)ccc12 [Compound Q012055A, (S)—N-[(4-methyl-2-oxo-2H-chromen-7-yl)oxyacetyl]-3-(thianaphthen-3-yl)alanine]	–	41	1 µM
N=C(N)N1CCC[C@@H](C(=O)N[C@@H](Cc2csc3ccccc23)C(=O)O)C1 [Compound Q012130, (2S)-3-(thianaphthen-3-yl)-2-({[(3R)—N-[amino(imino)methyl]piperidin-3-yl]carbonyl}amino)propionic acid]	No inhibition	–	–
COc1cc(/C=C/C(=O)CC(=O)/C=C/c2ccc(O)c(OC)c2)ccc1O [Curcumin, curcumin, reference compound]	–	22	0.5 µM
O=C(O)c1cc(/C=C2\NC(=O)N(Cc3ccccc3)C2=O)ccc1O [Compound Q013012, 5-[(Z)-(1-benzyl-2,5-dioxoimidazolidin-4-ylidene)methyl]-2-hydroxybenzoic acid]	No inhibition	–	–
O=C(COc1ccc2c(C(F)(F)F)cc(=O)oc2c1)N[C@@H](Cc1csc2ccccc12)C(=O)O [Compound Q012125, (2S)-2-({[2-oxo-4-(trifluoromethyl)-2H-chromen-7-yl]oxy}acetyl)amino-3-(thianaphthen-3-yl)propanoic acid]	No inhibition	–	–
CN(C)CCSc1ccc(/C=C2\NC(=O)N(Cc3ccc(OCc4ccccc4)cc3)C2=O)s1 [Compound Q013021]	–	25	1 µM
CCOC(=O)[C@H](Cc1csc2ccccc12)NC(=O)COc1ccc2c(C)cc(=O)oc2c1 [Compound Q012055, (S)—N-[(4-methyl-2-oxo-2H-chromen-7-yl)oxyacetyl]-3-(thianaphthen-3-yl)alanine ethyl ester]	–	51	0.05 µM
CCOC(=O)[C@H](Cc1csc2ccccc12)NC(=O)COc1ccc2c(C(F)(F)F)cc(=O)oc2c1 [Compound Q012124, (2S)-2-({[2-oxo-4-(trifluoromethyl)-2H-chromen-7-yl]oxy}acetyl)amino-3-(thianaphthen-3-yl)propanoic acid ethyl ester]	–	13	0.05 µM
COc1cc(CNc2ccccn2)cc(CN2CCN(c3ccccn3)CC2)c1O [Compound Q012143]	–	22	250 µM
CCOC(=O)[C@H](Cc1ccccc1)NC(=O)Nc1ccc2c(C)cc(=O)oc2c1 [Compound Q012053, (2S)-2-({[(4-Methyl-2-oxo-2H-chromen-7-yl)amino]carbonyl}amino)-3-phenylpropanoic acid ethyl ester]	–	44	10 µM
O=C1N/C(=C\c2csc3ccccc23)C(=O)N1Cc1csc2ccccc12 [Compound Q013018]	No inhibition	–	–
Cl.O=C(N[C@@H](Cc1csc2ccccc12)C(=O)O)c1cncc(Br)c1 [Compound Q011265, (S)—N-(5-bromonicotinoyl)-3-(thianaphthen-3-yl)alanine hydrochloride]	–	20	1 µM
COc1cc(CNc2ccc(C(=O)O)cc2)cc(CN2CCN(c3ccccn3)CC2)c1O [Compound Q012146]	No inhibition	–	–
CC(C)(C)OC(=O)N1CCC[C@@H](C(=O)N[C@@H](Cc2csc3ccccc23)C(=O)O)C1 [Compound Q012128, (2S)-3-(thianaphthen-3-yl)-2-({[(3R)—N-t-butyloxycarbonylpiperidin-3-yl]carbonyl}amino)propanoic acid]	–	14.5	10 µM
O=C1N/C(=C\c2c[nH]c3ccccc23)C(=O)N1Cc1ccccc1 [Compound Q013019]	No inhibition	–	–
CN1C(=N)N/C(=C\c2csc3ccccc23)C1=O [Compound Q012038]	–	35	10 µM
COc1cc(CN[C@@H](Cc2ccccc2)C(=O)O)cc(CN2CCN(c3ccccn3)CC2)c1O [Compound Q012148]	No inhibition	–	–
CCOC(=O)[C@H](Cc1csc2ccccc12)NC(=O)[C@@H]1CCCNC1 [Compound Q012127, (2S)-3-(thianaphthen-3-yl)-2-({[(3R)-piperidin-3-yl]carbonyl}amino)propanoic acid ethyl ester]	–	13	250 µM
COc1cc(CNCCc2ccccn2)cc(CN2CCN(c3ccccn3)CC2)c1O [Compound Q012119T, 2-Methoxy-4-({[2-(pyridin-2-yl)ethyl]amino}methyl)-6-[(4-pyridin-2-ylpiperazin-1-yl)methyl]phenol]	No inhibition	–	–
CC(C)(C)OC(=O)Nc1ccc(O)c(C(=O)NCCO)c1 [Compound Q012021B, tert-Butyl 4-hydroxy-3-{[(2-hydroxyethyl)amino]carbonyl}phenylcarbamate]	–	25	10 µM
O=C(N[C@@H](Cc1csc2ccccc12)C(=O)O)[C@@H]1CCCNC1 [Compound Q012129, (2S)-3-(thianaphthen-3-yl)-2-({[(3R)-piperidin-3-yl]carbonyl}amino)propanoic acid]	–	23	1 µM
